We go through 2 compounds from US8685935B2, “Use of flavonoids to increase the bioavailability of hesperetin” (Nestec S.A., priority 2009, dated 2014).

This data set relates to Caco-2 cell monolayers. The data set can be described thus: Caco-2 cell monolayer Transwell model: formation and transport of hesperetin and its conjugates. In kind it is in vitro ADME. Particulars: 120 minutes upon exposure to 10 μM (5 nmol) hesperetin added to the apical compartment. On the procedure:
Caco-2 cell monolayers were grown on permeable filters that divide a two-compartment cell culture system. Although originally derived from a colonic adenoma carcinoma, differentiating Caco-2 cells are known to display morphological and biochemical properties of intestinal enterocytes including the formation of a polarized layer with expression of ABC transport proteins including Pgp, MRP1, MRP2 and BCRP and metabolizing enzymes.
Using the Caco-2 cell monolayer Transwell model in which the cells in the apical compartment were exposed to hesperetin, or combinations of hesperetin and other flavonoids, we studied the formation and transport of intestinal hesperetin conjugates, which were formed by the Caco-2 cells. 120 minutes upon exposure to 10 μM (5 nmol) hesperetin added to the apical compartment. […] These metabolites were identified as hesperetin 7-O-glucuronide and hesperetin 7-O-sulfate.
In general terms: Caco-2 cells form a polarised layer with tight junctions and transporters.

As for `COc1ccc([C@@H]2CC(=O)c3c(O)cc(O[C@@H]4O[C@H](C(=O)O)[C@@H](O)[C@H](O)[C@H]4O)cc3O2)cc1O` [hesperetin 7-O-glucuronide], the “amount of metabolite in apical compartment compared to basolateral” value is recorded as “detected at much higher amounts in the apical compartment compared to the basolateral”.

Take `COc1ccc([C@@H]2CC(=O)c3c(O)cc(OS(=O)(=O)O)cc3O2)cc1O` [hesperetin 7-O-sulfate]: the “amount of metabolite in apical compartment compared to basolateral” value is recorded as “detected at much higher amounts in the apical compartment compared to the basolateral”.
